Results on seven molecules are retold here after patent US7045624B2, “Compounds and their uses” (Conopco, Inc., priority 2002, dated 2006).

Assay [1] concerns Neurons from trigeminal ganglia of Wistar rats. Briefly: Ca2+ response of cultured trigeminal neurons to test compounds (Fura-2 fluorescence). It is filed as cell-based. Conditions: 100 μM final test concentration; cellular Ca2+ levels, cultured rat trigeminal neurons; relative to compound 1 (icilin). How it is done:
The efficacy of different compounds according to the invention was tested in vitro, by exposing cultured neurons to the compounds and monitoring the cellular Ca^2+ levels.
The compounds were dissolved in DMSO by ultrasonication to a 0.1 M solution. 5 μl of this stock was added to 5 mg of cyclodextrin and 5 ml of 140 Na-tyrode, to achieve a 100 μM final test concentration.
Neurons from trigeminal ganglia of Wistar rats were prepared as described in U.S. Pat. No. 5,811,256. After 24 hours of cultivation, the responsiveness of the neurons to different compounds was measured according to the general procedure described by McKemy et al (Nature, Vol. 416, 2002, 52–58). The test protocol described by McKemy was modified slightly, by using the fluorescent Ca^2+ indicator Fura-2. Detection of the cellular fluorescence signals was performed by videomicroscopical analysis. The neurons were given a cold stimulus by a thermocoupling device and were subsequently tested for responsiveness to the test compounds by superfusion with solutions containing the test compounds while continuously monitoring the cellular Ca^2+ levels.
The results were recorded for compounds 1 to 3 and menthol, and are expressed below, as a percentage compared to the activity for compound 1 (icilin).

A short description of assay [2]: Cooling effect of synthesised compounds (test not described). As to conditions: ability to elicit a cooling sensation; no test details given.
Assay [3] deals with mucous membranes (nostrils, lips and eyelids) of the researchers. Conditions: in contact with mucous membranes (nostrils, lips and eyelids), also when ingested; cited from earlier work.

For `O=C1NC(c2cccc(Cl)c2)=CCN1c1ccccc1O` [Compound 3, 1-(2′-hydroxyphenyl)-4-(3″-chlorophenyl)-1,2,3,6-tetrahydro-pyrimidine-2-one], the “Activity (% relative to Compound 1)” value in assay [1] turned out to be 35%. Consider `COc1cccc(C2=CCN(c3ccccc3O)C(=O)N2)c1` [1-(2′-hydroxyphenyl)-4-(3″-methoxyphenyl)-1,2,3,6-tetrahydropyrimidine-2-one], for which the cooling effect entry in assay [2] is on record as “good cooling effects”.

`CC1CCC(C(C)C)C(O)C1` (centres unmarked) [Menthol, 2-isopropyl-5-methyl-cyclohexanol]: the “Activity (% relative to Compound 1)” value in assay [1] is listed as 42%. Take `O=C1NC(c2ccccc2)=CCN1c1ccccc1O` [1-(2′-hydroxyphenyl)-4-phenyl-1,2,3,6-tetrahydropyrimidine-2-one]: the cooling effect result in assay [2] is given as “good cooling effects”. In the case of `O=C1NC(c2ccccc2[N+](=O)[O-])=CCN1c1ccccc1O` [Compound 1, 1-[2-hydroxyphenyl]-4-[2-nitrophenyl]-1,2,3,6-tetrahydropyrimidine-2-one], in assay [1], the “Activity (% relative to Compound 1)” value was determined as 100%. The sensations of coldness result in assay [3] is reported as “produced sensations of coldness”. Regarding `O=C1NC(c2cccc([N+](=O)[O-])c2)=CCN1c1ccccc1` [1-phenyl-4-(3″-nitrophenyl)-1,2,3,6-tetrahydropyrimidine-2-one], the cooling effect entry in assay [2] is on record as “good cooling effects”. For `O=C1NC(c2cccc([N+](=O)[O-])c2)=CCN1c1ccccc1C(F)(F)F` [1-(2′-trifluoromethylphenyl)-4-(3″-nitrophenyl)-1,2,3,6-tetrahydropyrimidine-2-one], the cooling effect result in assay [2] is “good cooling effects”.
